The text below walks through data of patent US11680298B2, “Method of identifying risk of cancer and therapeutic options” (Agency for Science, Technology and Research, priority 2016, dated 2023).

Molecules are shown by their SMILES. Entries after “also recorded” stand apart in the source; their conditions may differ.

One assay concerns HCC70 xenograft tumours. The assay is described as follows: In vivo pacritinib sensitivity test, HCC70 orthotopic xenograft. Also noted: species or system NOD-SCID mice. The conditions noted are these: 1q21.3-amplified HCC70; 50, 100 and 150 mg/kg pacritinib daily by oral gavage for 21 days.
The target of assay [1] is T1, IRAK1 (Homo sapiens, UniProt P51617). As to conditions: recently reported; cited from earlier work.
A further assay has as its system MB231 tumours. The assay is described as follows: In vivo pacritinib sensitivity test, MB231 orthotopic xenograft. Also noted: species or system NOD-SCID mice. The conditions noted are these: 1q21.3 non-amplified MB231; 50, 100 and 150 mg/kg pacritinib daily by oral gavage for 21 days.
The target of assay [2] is T1, IRAK1. The assay is described as follows: Western blot of phospho-IRAK1 in HCC70 xenograft. It counts as in vivo, NOD-SCID mice. Also noted: For protein extraction of xenograft tumours, snap frozen samples were resuspended in RIPA buffer; from tissue; host or cells: HCC70 xenograft tumour from NOD-SCID mice. The conditions noted are these: HCC70 xenograft (n=4) treated with pacritinib. How it is done: (§1) Mice were then dosed daily by oral gavage for 21 days. Tumour growth was monitored for 1 month.
(§2) All immunoblots shown in this specification represent at least two independent experiments. In brief, cells were washed with PBS and lysed in RIPA buffer supplemented with protease and phosphatase inhibitors and further sonicated using an XL2000 Microson Ultrasonice Processor (Misonix). Equal amounts of protein extract were separated on SDS-polyacrylamided gels and transferred to PVDF membranes. Membranes were further blocked with 5% milk or BSA, and then probed with the following antibodies: anti-IRAK1 was purchased from Santa Cruz Biotechnology (Santa Cruz, Calif.; sc-7883), anti-phospho-IRAK1 (T209) was purchased from Assay Biotech (Sunnyvale, Calif.; A1074), anti-JAK2 (Danvers, Mass.; #3230) and anti-phospho-JAK2 ([…]) (Danvers, Mass.: #3774) were purchased from Cell Signaling Technology, anti-actin was purchased from Sigma Aldrich CA; A5441). For protein extraction of xenograft tumours, snap frozen samples were resuspended in RIPA buffer supplemented with protease and phosphatase inhibitors and homogenized with QIAGEN TissueLyzer II as described by the manufacturer, followed by immunoblotting as described above.

A further assay has as its system MB231 tumourspheres. The assay is described as follows: Mammosphere (tumoursphere) formation assay, MB231. It counts as cell-based. The conditions noted are these: MB231 cell line. How it is done: (§3) Mammosphere Formation Assay PDX-derived tumoursphere cells were trypsinized and passed through 40 μm cell strainer to achieve single cell suspensions. 3×10^4 cells were seeded in 6-well ultra-low attachment plates (Corning, N.Y.; CLS3471) in serum-free DMEM/F12 supplemented with N2 and B27 (Gibco, Grand Island, N.Y.), 20 ng/ml epidermal growth factor (MACS, Auburn, Calif.), 20 ng/ml basic fibroblast growth factor (MACS, Auburn, Calif.), 0.2 μM Thiazovivin ([…] Technologies, Vancouver, BC) and penicillin/streptomycin (Gibco, Carlsbad, Calif.). For breast cancer cell lines and MCF10A cell line, 3×10^4 cells were seeded in 6-well ultra-low attachment plates in Mammocult medium (Stem Cell Technologies, Vancouver, BC, Canada), supplemented with fresh hydrocortisone (0.5 μg/ml) and heparin (1:500). Mammospheres were maintained at 37° C. with 5% CO2 and topped up with medium every 3 days. After 7-9 days, mammospheres were stained with INT (2-(4-iodophenyl)-3-(4-nitrophenyl)-5-phenyl-2H-tetrazolium chloride, Sigma-Aldrich) and quantified. Imaging and quantification were done using GelCount apparatus and associated software (Oxford Optronix, Abingdon, UK). […] Cell Proliferation Assay

Assay [3] relates to ER positive and ER negative breast cancer cell lines tumourspheres. The assay is described as follows: Tumoursphere growth in breast cancer cell lines with or without 1q21.3 amplification. Format: cell-based. The conditions noted are these: increasing dose of pacritinib. As for the experimental part:
(§4) For this purpose, the 1q21.3 gene amplification in a series of breast cancer cell lines was profiled using ddPCR (FIG. 6A). Of note, 1q21.3 status in these cell lines was in general correlated with phospho-IRAK1 and expression of S100A8/9 (FIG. 6B and FIG. 14A), but not with phospho-JAK2 status (FIG. 6B).
(§5) Mammosphere Formation Assay PDX-derived tumoursphere cells were trypsinized and passed through 40 μm cell strainer to achieve single cell suspensions. 3×10^4 cells were seeded in 6-well ultra-low attachment plates (Corning, N.Y.; CLS3471) in serum-free DMEM/F12 supplemented with N2 and B27 (Gibco, Grand Island, N.Y.), 20 ng/ml epidermal growth factor (MACS, Auburn, Calif.), 20 ng/ml basic fibroblast growth factor (MACS, Auburn, Calif.), 0.2 μM Thiazovivin ([…] Technologies, Vancouver, BC) and penicillin/streptomycin (Gibco, Carlsbad, Calif.). For breast cancer cell lines and MCF10A cell line, 3×10^4 cells were seeded in 6-well ultra-low attachment plates in Mammocult medium (Stem Cell Technologies, Vancouver, BC, Canada), supplemented with fresh hydrocortisone (0.5 μg/ml) and heparin (1:500). […] After 7-9 days, mammospheres were stained with INT (2-(4-iodophenyl)-3-(4-nitrophenyl)-5-phenyl-2H-tetrazolium chloride, Sigma-Aldrich) and quantified. Imaging and quantification were done using GelCount apparatus and associated software (Oxford Optronix, Abingdon, UK). […]

For a further assay, the system named is HCC1937. The assay is described as follows: Tumoursphere growth, HCC1937. The conditions noted are these: HCC1937, negative for 1q21.3 amplification, high phospho-IRAK1 and phospho-JAK2. It counts as cell-based. How it is done:
as §4, §5

A further assay relates to S100A7/8/9. The assay is described as follows: Real time RT-PCR of S100A7/8/9 expression in HCC70 xenograft. It counts as in vivo, NOD-SCID mice. As to conditions: HCC70 xenograft (n=4) treated with pacritinib. As for the experimental part: as §1
Total RNA was isolated using TRIzol® reagent (Life Technologies, Carlsbad, Calif.; 15596026) and purified with Direct-zol™ RNA MiniPrep (Zymo Research, Irvine, Calif.; R2050). Reverse transcription and quantitative PCR assays were performed using High-Capacity cDNA Reverse Transcription Kit (Applied Biosystems, Carlsbad, Calif.; 4368813) and KAPA SyBr Fast qPCR kit (KAPA Biosystems, Wilmington, Mass.; KK4601). For quantification of mRNA levels, GAPDH level was used as an internal control. All reactions were analysed in an Applied Biosystems PRISM 7500 Fast Real-Time PCR system in 96-well plate format. For RNA extraction of xenograft tumours, snap frozen samples were resuspended in TRIzol® reagent and homogenized with QIAGEN TissueLyzer II as described by the manufacturer, followed by purification with Direct-zolI™ RNA MiniPrep.
In general terms: Real-time PCR tracks product formation cycle by cycle.

In assay [4] the test system is PDX-derived tumourspheres. The assay is described as follows: Mammosphere (tumoursphere) formation assay, PDX-derived tumourspheres. It counts as cell-based, human. The conditions noted are these: four different PDX-derived tumourspheres. As for the experimental part:
as §3

The target in the next assay is T2, JAK2 (Homo sapiens, UniProt O60674).
T2 construct: endogenous in cells; host or cells: MB468 and MB231 cells; PDX-derived tumourspheres
The assay is described as follows: Western blot of phospho-JAK2 in breast cancer cells and patient-derived tumourspheres. Format: cell-based. The conditions noted are these: 6 hr pacritinib treatment, western blot.
Excerpt: as §2
In general terms: A western blot detects proteins with antibodies after separation by electrophoresis.

The subject of a further assay is EL12-58 PDX tumours. The assay is described as follows: Neoadjuvant breast cancer PDX model of tumour recurrence. As to conditions: after paclitaxel-induced regression and surgery; 20 mg/kg paclitaxel, 150 mg/kg pacritinib or both. Format: in vivo, NOD-SCID mice.
The target in assay [5] is T1, IRAK1. The assay is described as follows: Western blot of phospho-IRAK1 in breast cancer cells and patient-derived tumourspheres. It counts as cell-based. Further details: endogenous in cells; host or cells: MB468 and MB231 cells; PDX-derived tumourspheres. As for the experimental part:
Recombinant IL-1p (Cat no: 200-01B) was purchased from Peprotech (Rocky Hill, N.J.). Recombinant S100A7 (Cat no: pro-149), S100A8 (Cat no: pro-800) and S100A9 (Cat no: pro-814), were purchased from ProSpec (East Brunswick, N.J.). Cells were treated with recombinant proteins at stated concentration for 20 min before harvesting for western blot. Paclitaxel (Cat no: P-9600) was purchased from LC Lab (Woburn, Mass.).
as §2

T2 sequence (O60674 whole entry): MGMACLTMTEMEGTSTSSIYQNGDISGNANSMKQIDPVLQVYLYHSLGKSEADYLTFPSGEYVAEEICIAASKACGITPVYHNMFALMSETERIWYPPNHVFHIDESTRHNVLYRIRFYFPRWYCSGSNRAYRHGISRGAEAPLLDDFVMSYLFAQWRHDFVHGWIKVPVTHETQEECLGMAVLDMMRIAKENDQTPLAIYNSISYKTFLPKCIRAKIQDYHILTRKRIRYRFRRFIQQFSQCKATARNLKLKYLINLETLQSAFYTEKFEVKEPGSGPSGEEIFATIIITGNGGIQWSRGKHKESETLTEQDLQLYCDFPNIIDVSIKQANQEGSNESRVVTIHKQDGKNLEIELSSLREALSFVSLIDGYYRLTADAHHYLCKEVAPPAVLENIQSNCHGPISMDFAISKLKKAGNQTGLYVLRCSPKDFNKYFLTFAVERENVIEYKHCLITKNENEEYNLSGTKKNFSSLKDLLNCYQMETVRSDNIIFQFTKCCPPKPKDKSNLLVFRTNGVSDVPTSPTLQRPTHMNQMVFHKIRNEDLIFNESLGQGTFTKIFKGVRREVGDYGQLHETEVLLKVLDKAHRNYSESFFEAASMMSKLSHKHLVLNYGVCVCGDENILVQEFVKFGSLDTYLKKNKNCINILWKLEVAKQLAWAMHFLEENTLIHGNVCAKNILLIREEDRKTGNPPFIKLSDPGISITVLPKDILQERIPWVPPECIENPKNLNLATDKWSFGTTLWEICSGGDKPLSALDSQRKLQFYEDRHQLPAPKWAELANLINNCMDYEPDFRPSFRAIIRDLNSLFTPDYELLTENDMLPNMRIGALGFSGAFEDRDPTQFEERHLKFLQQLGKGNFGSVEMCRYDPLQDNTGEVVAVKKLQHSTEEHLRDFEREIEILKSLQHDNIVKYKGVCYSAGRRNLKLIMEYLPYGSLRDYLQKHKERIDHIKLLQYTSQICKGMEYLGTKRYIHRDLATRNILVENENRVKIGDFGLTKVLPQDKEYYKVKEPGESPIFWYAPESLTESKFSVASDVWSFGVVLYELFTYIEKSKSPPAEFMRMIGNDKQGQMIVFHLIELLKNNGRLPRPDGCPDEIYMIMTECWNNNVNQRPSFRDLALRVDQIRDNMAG
T1 sequence (P51617 whole entry): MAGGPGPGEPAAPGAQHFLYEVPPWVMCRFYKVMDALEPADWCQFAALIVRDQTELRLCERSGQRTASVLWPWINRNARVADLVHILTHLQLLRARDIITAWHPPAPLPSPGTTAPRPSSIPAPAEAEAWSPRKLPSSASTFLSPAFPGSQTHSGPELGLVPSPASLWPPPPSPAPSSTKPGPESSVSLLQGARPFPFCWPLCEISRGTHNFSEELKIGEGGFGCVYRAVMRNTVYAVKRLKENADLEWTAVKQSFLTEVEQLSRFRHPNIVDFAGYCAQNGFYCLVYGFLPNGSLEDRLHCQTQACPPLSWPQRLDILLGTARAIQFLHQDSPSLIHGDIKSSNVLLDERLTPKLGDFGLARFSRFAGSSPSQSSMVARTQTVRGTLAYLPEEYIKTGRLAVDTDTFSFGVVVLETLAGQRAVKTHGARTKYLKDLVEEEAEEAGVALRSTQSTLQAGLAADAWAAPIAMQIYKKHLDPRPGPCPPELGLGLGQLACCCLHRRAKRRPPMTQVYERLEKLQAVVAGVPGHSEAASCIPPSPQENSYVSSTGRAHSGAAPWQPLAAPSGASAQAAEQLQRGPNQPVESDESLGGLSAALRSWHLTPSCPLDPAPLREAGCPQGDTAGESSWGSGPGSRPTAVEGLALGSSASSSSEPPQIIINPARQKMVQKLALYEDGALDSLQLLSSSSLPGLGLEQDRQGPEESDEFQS

Regarding `C1=C/COCc2cc(ccc2OCCN2CCCC2)Nc2nccc(n2)-c2cccc(c2)COC/1` [pacritinib], the results for the tumour growth entry in the assay with HCC70 xenograft tumours and in the assay on MB231 tumours were “substantial inhibition in tumour growth” and “no obvious effect”, respectively. The IRAK1 inhibition entry at IRAK1 [1] was “potent IRAK1 inhibitor”. Further, the “phospho-IRAK1 level in xenograft” value on IRAK1 [2] was “downregulation of phospho-IRAK1”. Further, the number of tumourspheres entry in the assay on MB231 tumourspheres was “little effect”. In addition, the “tumoursphere growth, 1q21.3 amplified versus non-amplified cell lines” value in assay [3] is given as “preferential growth inhibition of breast cancer cells containing amplified S100A8 and/or S100A9 genes; also recorded: more effective in impairing tumoursphere growth in cancer cell lines positive for 1q21.3 amplification compared to negative cell lines; also recorded: more sensitive to pacritinib treatment compared to cancer cells without 1q21.3 amplification”. In the assay on HCC1937, the sensitivity to pacritinib entry was “sensitive to pacritinib treatment”. In addition, in the assay on S100A7/8/9, the “S100A7/8/9 expression in xenograft” value is listed as “downregulation”. Besides, the tumoursphere growth entry in assay [4] is “strong tumoursphere growth inhibition”. Also, the “phosphorylation of JAK2” value at JAK2 (MB231 cells) is “inhibition of phospho-IRAK1 and phospho-JAK2 within 6 hr; also recorded: inhibited phosphorylation of JAK2”; on JAK2 (MB468 cells), “inhibition of phospho-IRAK1 and phospho-JAK2 within 6 hr; also recorded: effectively block the phosphorylation of both IRAK1 and JAK2 as early as 6 hours in a dose-dependent manner”. The “tumour regrowth after surgical removal of residual tumour” value in the assay with EL12-58 PDX tumours is “slowed down”. Besides, at IRAK1 [5] (MB468 cells, 6 hr pacritinib treatment, western blot), the “phosphorylation of IRAK1” value is “inhibition of phospho-IRAK1 and phospho-JAK2 within 6 hr; also recorded: effectively block the phosphorylation of both IRAK1 and JAK2 as early as 6 hours in a dose-dependent manner”. The phospho-IRAK1 entry at IRAK1 [5] (patient-derived (PDX-derived) tumoursphere cells, 24 hr, pacritinib 2.5 μM, with and without IL-1) is “prolonged inhibition of phospho-IRAK1; also recorded: sustained inhibition of phospho-IRAK1”.
